How the values were obtained:
[1] = target: T1, Phosphatidylinositol 4,5-bisphosphate 3-kinase catalytic subunit delta isoform (Homo sapiens, UniProt O00329); experiment: Scintillation Proximity Assay
T1 sequence (O00329 whole entry): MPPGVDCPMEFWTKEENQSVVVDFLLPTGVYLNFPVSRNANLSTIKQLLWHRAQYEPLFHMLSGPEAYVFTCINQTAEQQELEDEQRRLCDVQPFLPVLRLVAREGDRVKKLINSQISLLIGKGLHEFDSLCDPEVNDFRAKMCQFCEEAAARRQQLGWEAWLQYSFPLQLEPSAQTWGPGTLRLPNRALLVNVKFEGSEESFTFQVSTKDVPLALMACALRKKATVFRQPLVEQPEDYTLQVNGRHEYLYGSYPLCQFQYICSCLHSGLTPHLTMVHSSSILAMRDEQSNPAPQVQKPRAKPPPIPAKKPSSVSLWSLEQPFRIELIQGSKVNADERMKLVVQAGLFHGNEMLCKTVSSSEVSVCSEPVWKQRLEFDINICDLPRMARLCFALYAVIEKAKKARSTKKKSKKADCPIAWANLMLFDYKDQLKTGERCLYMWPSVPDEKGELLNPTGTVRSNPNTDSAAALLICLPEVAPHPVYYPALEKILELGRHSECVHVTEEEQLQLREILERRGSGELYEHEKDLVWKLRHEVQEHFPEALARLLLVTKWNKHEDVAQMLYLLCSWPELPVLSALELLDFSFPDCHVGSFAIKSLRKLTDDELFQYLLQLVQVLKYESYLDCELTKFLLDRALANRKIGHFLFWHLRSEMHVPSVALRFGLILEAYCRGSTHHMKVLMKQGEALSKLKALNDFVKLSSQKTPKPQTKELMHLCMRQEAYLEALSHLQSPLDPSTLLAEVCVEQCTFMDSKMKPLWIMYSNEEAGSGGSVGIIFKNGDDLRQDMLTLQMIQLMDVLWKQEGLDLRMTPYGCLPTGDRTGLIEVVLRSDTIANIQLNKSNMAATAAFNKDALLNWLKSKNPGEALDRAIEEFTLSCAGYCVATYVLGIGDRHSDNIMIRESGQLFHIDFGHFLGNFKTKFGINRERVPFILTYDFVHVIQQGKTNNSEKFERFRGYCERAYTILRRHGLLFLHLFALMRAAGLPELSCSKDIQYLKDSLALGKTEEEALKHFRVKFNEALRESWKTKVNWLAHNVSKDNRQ
Source text: PI3Kδ: [γ-33P]ATP (10 mCi/mL) and Wheat Germ Agglutinin (WGA) YSi SPA Scintillation Beads was purchased from PerkinElmer (Waltham, Mass.). Lipid kinase substrate, D-myo-Phosphatidylinositol 4,5-bisphosphate (PtdIns(4,5)P2)D (+)-sn-1,2-di-O-octanoylglyceryl, 3-O-phospho linked (PIP2), CAS 204858-53-7, was purchased from Echelon Biosciences (Salt Lake City, Utah). PI3Kδ (p110δ/p85α) Recombinant Human Protein was purchased from Eurofins. ATP, MgCl2, DTT, EDTA, MOPS and CHAPS were purchased from SigmaAldrich.The kinase reaction was conducted in polystyrene 384-well Greiner Bio-one white plate from Thermo Fisher Scientific in a final volume of 25 μL. Inhibitors were first diluted serially in DMSO and added to the plate wells before the addition of other reaction components. The final concentration of DMSO in the assay was 2%. The PI3Kδ assay was carried out at room temperature in 20 mM MOPS, pH 6.7, 10 mM MgCl2, 5 mM DTT and CHAPS 0.03%. Reactions were initiated by the addition of ATP, the final reaction mixture consisted of 20 μM PIP2, 2 μM ATP, 0.5 μCi [γ-33P] ATP, 3.4 nM PI3Kδ. Reactions were incubated for 120 min and terminated by the addition of 40 μL SPA beads suspended in quench buffer: 163 mM potassium phosphate pH 7.8, 20% glycerol, 25 mM EDTA. The final concentration of SPA beads is 1.0 mg/mL. After the plate sealing, plates were shaken overnight at room temperature and centrifuged at 1500 rpm for 10 min, the radioactivity of the product was determined by scintillation counting on Topcount.

[2] = target: Phosphatidylinositol 4,5-bisphosphate 3-kinase catalytic subunit gamma isoform (Homo sapiens, UniProt P48736); experiment: Scintillation Proximity Assay
Source text: PI3K-γ: [γ-33P]ATP (10 mCi/mL) and Wheat Germ Agglutinin (WGA) YSi SPA Scintillation Beads was purchased from PerkinElmer (Waltham, Mass.). Lipid kinase substrate, D-myo-Phosphatidylinositol 4,5-bisphosphate (PtdIns(4,5)P2)D (+)-sn-1,2-di-O-octanoylglyceryl, 3-O-phospho linked (PIP2), CAS 204858-53-7, was purchased from Echelon Biosciences (Salt Lake City, Utah). PI3Kγ (p110γ) Recombinant Human Protein was purchased from Life technology (Grand Island, N.Y.). ATP, MgCl2, DTT, EDTA, MOPS and CHAPS were purchased from SigmaAldrich (St. Louis, Mo.).The kinase reaction was conducted in polystyrene 384-well Greiner Bio-one white plate from Thermo Fisher Scientific in a final volume of 25 μL. Inhibitors were first diluted serially in DMSO and added to the plate wells before the addition of other reaction components. The final concentration of DMSO in the assay was 2%. The PI3Kγ assay was carried out at room temperature in 20 mM MOPS, pH 6.7, 10 mM MgCl2, 5 mM DTT and CHAPS 0.03%. Reactions were initiated by the addition of ATP, the final reaction mixture consisted of 20 μM PIP2, 2 μM ATP, 0.5 μCi [γ-33P] ATP, 13 nM PI3Kγ. Reactions were incubated for 120 min and terminated by the addition of 40 μL SPA beads suspended in quench buffer: 163 mM potassium phosphate pH 7.8, 20% glycerol, 25 mM EDTA. The final concentration of SPA beads is 1.0 mg/mL. After the plate sealing, plates were shaken overnight at room temperature and centrifuged at 1500 rpm for 10 min, the radioactivity of the product was determined by scintillation counting on Topcount (Perkin-Elmer).

Chain of Phosphatidylinositol 4,5-bisphosphate 3-kinase catalytic subunit gamma isoform (P48736 whole entry, canonical isoform): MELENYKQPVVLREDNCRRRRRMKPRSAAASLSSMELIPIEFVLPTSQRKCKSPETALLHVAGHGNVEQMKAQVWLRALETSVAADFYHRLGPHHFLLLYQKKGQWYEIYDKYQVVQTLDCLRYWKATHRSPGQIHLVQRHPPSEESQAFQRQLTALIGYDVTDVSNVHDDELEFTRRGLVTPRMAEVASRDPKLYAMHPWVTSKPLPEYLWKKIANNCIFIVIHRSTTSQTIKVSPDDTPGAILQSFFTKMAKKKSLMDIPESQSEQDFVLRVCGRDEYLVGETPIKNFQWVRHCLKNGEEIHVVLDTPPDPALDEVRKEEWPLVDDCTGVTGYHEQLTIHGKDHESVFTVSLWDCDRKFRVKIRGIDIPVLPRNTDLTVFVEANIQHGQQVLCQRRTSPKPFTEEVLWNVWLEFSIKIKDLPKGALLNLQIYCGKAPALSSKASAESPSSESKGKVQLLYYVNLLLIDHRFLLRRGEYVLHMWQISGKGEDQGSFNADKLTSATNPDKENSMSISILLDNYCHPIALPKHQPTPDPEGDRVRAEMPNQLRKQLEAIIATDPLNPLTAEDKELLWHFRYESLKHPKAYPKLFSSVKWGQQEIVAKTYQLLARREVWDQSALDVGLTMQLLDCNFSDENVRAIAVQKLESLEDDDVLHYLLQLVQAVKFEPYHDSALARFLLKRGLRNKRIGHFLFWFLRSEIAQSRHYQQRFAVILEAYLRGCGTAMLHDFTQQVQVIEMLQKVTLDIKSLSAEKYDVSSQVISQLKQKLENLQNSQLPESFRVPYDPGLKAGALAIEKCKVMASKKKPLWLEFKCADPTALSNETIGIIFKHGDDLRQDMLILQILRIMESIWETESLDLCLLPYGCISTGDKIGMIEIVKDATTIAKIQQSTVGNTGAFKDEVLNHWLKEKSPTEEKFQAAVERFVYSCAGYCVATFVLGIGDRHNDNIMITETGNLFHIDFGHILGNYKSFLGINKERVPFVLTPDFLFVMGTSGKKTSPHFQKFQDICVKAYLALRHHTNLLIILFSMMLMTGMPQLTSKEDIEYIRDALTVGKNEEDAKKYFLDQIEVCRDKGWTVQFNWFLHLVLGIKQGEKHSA

Row | SMILES | IC50 [1] | IC50 [2]
1 | Cc1ccc(C(C)C(F)(F)F)cc1-c1cnc2c(N)nc(-c3cnn(C)c3)cn12 (stereo unspecified) [US10738057, Example 69] | < 100 nM | < 100 nM
2 | Cc1ncc(-c2cn3c(-c4cc(C(C)C(F)(F)F)ccc4C)cnc3c(N)n2)s1 (stereo unspecified) [US10738057, Example 70] | < 100 nM | < 100 nM
3 | Cc1ccc(C(C)C(F)(F)F)cc1-c1cnc2c(N)nc(-c3cnco3)cn12 (stereo unspecified) [US10738057, Example 71] | < 100 nM | < 100 nM

— BindingDB's records for patent US10738057 (Incyte Corporation, 2020)
